Results: US20260297085A1, “1 H-PYRROLO[2,3-B]PYRIDIN-4-YL]-2-OXOPYRROLIDINE-3-CARBONITRILE DERIVATIVES AS TYROSINE KINASE 2 (TYK2) INHIBITORS FOR THE TREATMENT OF INFLAMMATORY DISEASES” (BIOGEN MA INC., priority 2023, published 2026)

Columns and labels:
[1] = molecular target: T1, human JAK1 kinase domain (JH1) (Homo sapiens, UniProt P23458); assay: JH1 biochemical assay for JAK1 (ADP-Glo kinase assay, recombinant JH1 catalytic domain, JAK3-342 peptide, 35 μM ATP); settings: JAK1 JH1, ADP-Glo
T1 construct: recombinantly generated catalytic kinase (also known as JH1) domain of human JAK1, JAK2, JAK3 and TYK2
T1 sequence (P23458 875-1153 limits assumed): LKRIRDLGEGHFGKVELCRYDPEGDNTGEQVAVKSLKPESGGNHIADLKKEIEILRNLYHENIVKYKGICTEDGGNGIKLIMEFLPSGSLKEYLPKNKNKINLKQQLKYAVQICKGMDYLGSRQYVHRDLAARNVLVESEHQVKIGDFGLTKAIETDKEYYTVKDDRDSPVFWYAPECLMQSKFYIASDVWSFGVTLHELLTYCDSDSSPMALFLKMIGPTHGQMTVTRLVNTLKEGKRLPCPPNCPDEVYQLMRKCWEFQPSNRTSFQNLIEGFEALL
Procedure, shortened: (§1)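 Reactions ran 100 min with 50 μM substrate peptide (JAK3-342 for JAK1 at 4 nM enzyme; JAK3-974 for JAK2 0.2 nM, JAK3 0.3 nM, TYK2 2 nM), and ADP formed was read by ADP-Glo luminescence. Eleven-point 3-fold series from 10 or 1 μM; IC50 fitted by 4-parameter logistic model.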

[2] = molecular target: T2, human JAK2 kinase domain (JH1) (Homo sapiens, UniProt O60674); assay: JH1 biochemical assay for JAK2 (ADP-Glo kinase assay, recombinant JH1 catalytic domain, JAK3-974 peptide, 15 μM ATP); settings: JAK2 JH1, ADP-Glo
T2 construct: recombinantly generated catalytic kinase (also known as JH1) domain of human JAK1, JAK2, JAK3 and TYK2
T2 sequence (O60674 849-1124 limits assumed): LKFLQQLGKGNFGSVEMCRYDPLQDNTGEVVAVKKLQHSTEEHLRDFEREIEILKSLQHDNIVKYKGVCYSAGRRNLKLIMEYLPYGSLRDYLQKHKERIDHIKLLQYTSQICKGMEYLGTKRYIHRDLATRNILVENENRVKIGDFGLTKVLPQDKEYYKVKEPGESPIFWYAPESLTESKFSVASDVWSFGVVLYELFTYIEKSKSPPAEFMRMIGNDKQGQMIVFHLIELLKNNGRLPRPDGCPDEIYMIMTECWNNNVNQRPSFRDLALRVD
Procedure, shortened: as §1

[3] = molecular target: T3, human JAK3 kinase domain (JH1) (Homo sapiens, UniProt P52333); assay: JH1 biochemical assay for JAK3 (ADP-Glo kinase assay, recombinant JH1 catalytic domain, JAK3-974 peptide, 4 μM ATP); settings: JAK3 JH1, ADP-Glo
T3 construct: recombinantly generated catalytic kinase (also known as JH1) domain of human JAK1, JAK2, JAK3 and TYK2
T3 sequence (P52333 822-1111 limits assumed): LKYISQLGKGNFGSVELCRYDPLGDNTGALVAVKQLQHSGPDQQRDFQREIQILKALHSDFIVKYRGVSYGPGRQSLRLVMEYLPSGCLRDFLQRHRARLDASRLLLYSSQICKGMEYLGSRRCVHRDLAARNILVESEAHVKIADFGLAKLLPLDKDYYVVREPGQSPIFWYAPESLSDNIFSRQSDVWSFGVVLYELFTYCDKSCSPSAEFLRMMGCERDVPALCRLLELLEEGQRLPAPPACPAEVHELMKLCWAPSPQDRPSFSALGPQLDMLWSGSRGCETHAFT
Procedure, shortened: as §1

[4] = molecular target: Tyk2 kinase activity on STAT4 in NK92 cells (Homo sapiens, UniProt P29597); assay: pSTAT4 cell assay (MSD; NK92 cells, 30 ng/mL IL2 stimulation); type: cell-based; settings: 30 ng/mL IL2, 15 minutes
Tyk2 kinase activity on STAT4 in NK92 cells, sequence (P29597 whole entry): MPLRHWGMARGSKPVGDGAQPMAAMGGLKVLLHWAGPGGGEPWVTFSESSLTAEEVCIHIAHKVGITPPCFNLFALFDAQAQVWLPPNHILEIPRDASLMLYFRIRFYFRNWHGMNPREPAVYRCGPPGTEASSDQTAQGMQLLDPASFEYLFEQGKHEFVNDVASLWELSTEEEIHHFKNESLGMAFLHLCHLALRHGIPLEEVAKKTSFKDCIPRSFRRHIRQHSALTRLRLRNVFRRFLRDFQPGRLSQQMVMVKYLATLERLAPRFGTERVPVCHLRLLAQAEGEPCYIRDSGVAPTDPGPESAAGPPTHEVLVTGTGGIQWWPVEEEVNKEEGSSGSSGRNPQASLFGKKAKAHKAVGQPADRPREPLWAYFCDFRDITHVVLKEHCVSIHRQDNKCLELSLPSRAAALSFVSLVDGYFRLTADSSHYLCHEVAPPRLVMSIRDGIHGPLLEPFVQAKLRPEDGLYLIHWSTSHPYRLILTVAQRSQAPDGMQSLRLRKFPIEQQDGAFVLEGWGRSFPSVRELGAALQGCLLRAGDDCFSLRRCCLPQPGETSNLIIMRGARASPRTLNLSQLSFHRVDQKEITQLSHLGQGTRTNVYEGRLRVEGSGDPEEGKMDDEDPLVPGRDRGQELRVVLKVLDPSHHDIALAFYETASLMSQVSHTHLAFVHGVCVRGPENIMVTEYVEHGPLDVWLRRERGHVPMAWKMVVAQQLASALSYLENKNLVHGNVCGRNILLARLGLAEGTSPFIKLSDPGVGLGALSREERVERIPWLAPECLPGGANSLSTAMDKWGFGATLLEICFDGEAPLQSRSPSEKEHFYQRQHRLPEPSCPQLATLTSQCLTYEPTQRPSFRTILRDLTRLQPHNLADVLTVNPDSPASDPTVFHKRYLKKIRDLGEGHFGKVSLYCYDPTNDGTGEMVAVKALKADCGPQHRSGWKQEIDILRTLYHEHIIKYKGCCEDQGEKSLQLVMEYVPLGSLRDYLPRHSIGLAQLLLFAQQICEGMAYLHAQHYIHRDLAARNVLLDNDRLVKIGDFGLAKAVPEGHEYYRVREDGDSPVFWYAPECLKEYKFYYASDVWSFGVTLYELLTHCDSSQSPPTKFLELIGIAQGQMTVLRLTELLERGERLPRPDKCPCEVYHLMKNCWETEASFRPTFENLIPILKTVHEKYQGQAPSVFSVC
Procedure, shortened: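 Read-out: phospho-STAT in NK92 lysates, MSD format, anti-STAT4 antibodies. Cells were serum-starved, given compound for 1 hr (10 μM top, four-fold, 10 points) and IL2-stimulated (30 ng/mL, 15 min). Normalized percent activity vs log concentration, 4-parameter logistic fit gave IC50.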

[5] = molecular target: JAK2 kinase activity on STAT5 in TF1 cells (Homo sapiens, UniProt O60674); assay: pSTAT5 cell assay (MSD; TF1 cells, 30 ng/mL IL-3 stimulation); type: cell-based; settings: 30 ng/mL IL-3, 15 minutes
JAK2 kinase activity on STAT5 in TF1 cells, sequence (O60674 whole entry): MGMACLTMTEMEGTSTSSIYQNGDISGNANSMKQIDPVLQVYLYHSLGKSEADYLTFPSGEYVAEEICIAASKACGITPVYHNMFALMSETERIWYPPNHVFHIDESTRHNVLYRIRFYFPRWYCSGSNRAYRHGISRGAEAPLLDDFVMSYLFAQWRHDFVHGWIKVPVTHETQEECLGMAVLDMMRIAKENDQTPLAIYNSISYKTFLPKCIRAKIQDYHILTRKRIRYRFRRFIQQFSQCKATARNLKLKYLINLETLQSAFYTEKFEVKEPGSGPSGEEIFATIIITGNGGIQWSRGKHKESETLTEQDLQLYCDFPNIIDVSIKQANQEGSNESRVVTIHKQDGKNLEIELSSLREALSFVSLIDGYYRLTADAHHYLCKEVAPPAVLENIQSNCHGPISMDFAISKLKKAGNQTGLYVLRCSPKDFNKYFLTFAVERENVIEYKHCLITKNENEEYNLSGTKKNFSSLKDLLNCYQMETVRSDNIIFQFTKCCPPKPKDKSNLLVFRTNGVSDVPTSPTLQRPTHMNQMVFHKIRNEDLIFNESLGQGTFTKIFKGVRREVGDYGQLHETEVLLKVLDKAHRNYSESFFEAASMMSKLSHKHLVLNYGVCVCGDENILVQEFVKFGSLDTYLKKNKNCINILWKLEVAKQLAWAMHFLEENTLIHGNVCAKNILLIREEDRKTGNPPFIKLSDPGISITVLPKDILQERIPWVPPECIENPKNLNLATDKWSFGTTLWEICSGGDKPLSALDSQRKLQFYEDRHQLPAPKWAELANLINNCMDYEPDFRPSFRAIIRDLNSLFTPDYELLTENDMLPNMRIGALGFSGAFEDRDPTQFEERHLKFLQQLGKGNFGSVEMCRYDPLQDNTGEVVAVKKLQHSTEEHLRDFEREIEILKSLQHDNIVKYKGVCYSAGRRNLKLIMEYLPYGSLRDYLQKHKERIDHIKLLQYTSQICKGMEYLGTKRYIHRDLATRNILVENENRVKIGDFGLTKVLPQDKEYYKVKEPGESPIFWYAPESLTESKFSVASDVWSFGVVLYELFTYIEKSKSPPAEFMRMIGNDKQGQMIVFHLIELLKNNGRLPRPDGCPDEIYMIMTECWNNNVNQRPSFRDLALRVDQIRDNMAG
Procedure, shortened: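 IC50 from a 4-parameter logistic fit of normalized pSTAT5 signal, measured by MSD in lysates of TF1 cells. Cells were serum-starved, exposed to compound for 1 h (top concentration 10 μM, four-fold, 10 points), then given IL-3 at 30 ng/mL for 15 min.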

[6] = molecular target: JAK1 kinase activity on STAT3 in TF1 cells (Homo sapiens, UniProt P23458); assay: pSTAT3 cell assay (MSD; TF1 cells, 30 ng/mL IL-6 stimulation); type: cell-based; settings: 30 ng/mL IL-6, 15 minutes
JAK1 kinase activity on STAT3 in TF1 cells, sequence (P23458 whole entry): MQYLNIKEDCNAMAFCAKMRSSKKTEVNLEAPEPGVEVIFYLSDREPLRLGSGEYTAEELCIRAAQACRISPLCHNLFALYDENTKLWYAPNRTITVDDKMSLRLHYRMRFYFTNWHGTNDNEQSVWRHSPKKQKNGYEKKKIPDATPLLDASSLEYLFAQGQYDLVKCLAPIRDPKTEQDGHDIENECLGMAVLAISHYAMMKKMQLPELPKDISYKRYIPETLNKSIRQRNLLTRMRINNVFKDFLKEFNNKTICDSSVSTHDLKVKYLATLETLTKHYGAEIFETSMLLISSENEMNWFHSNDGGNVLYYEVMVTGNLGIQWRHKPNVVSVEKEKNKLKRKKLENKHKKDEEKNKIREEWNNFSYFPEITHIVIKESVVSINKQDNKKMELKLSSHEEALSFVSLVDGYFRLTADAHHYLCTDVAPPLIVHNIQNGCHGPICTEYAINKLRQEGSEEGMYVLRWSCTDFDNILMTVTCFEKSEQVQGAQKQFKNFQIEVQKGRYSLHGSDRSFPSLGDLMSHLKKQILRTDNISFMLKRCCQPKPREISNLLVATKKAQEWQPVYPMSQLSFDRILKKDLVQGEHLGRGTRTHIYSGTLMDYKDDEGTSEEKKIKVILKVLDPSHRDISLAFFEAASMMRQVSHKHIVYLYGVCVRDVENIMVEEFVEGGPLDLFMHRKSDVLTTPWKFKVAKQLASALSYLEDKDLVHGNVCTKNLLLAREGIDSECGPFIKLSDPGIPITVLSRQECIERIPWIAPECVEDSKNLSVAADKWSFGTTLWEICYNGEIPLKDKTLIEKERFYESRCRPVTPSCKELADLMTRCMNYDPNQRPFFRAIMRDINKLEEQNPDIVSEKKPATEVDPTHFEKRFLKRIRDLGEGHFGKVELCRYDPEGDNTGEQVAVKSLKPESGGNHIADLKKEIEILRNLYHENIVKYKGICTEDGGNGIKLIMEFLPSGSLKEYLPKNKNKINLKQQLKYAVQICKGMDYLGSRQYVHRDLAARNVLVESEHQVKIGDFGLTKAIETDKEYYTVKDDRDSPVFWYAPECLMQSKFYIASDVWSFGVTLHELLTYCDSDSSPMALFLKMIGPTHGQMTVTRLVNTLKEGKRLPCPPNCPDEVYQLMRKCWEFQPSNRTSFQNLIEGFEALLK
Procedure, shortened: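 IC50 values reflect 4-parameter logistic fits of normalized pSTAT3 signal, measured by MSD in lysed TF1 cells. Cells were serum-starved and treated with compound for 1 h (top concentration 10 μM) before a 15 min IL-6 challenge.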

[7] = molecular target: T4, human TYK2 kinase domain (JH1) (Homo sapiens, UniProt P29597); assay: JH1 biochemical assay for TYK2 (ADP-Glo kinase assay, recombinant JH1 catalytic domain, JAK3-974 peptide, 10 μM ATP); settings: TYK2 JH1, ADP-Glo
T4 construct: recombinantly generated catalytic kinase (also known as JH1) domain of human JAK1, JAK2, JAK3 and TYK2
T4 sequence (P29597 897-1176 limits assumed): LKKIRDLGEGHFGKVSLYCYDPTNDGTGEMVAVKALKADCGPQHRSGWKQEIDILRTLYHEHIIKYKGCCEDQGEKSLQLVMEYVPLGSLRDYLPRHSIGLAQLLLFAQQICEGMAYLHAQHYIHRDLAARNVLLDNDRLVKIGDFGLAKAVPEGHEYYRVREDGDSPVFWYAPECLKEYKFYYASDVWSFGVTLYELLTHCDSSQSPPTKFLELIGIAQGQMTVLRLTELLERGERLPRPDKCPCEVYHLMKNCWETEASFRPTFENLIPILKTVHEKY
Procedure, shortened: as §1

SMILES	IC50 [1]	IC50 [2]	IC50 [3]	IC50 [4]	IC50 [5]	IC50 [6]	IC50 [7]
C[C@@H]1CN(c2cc(-c3cnn(C(F)F)c3)cc3ncsc23)C(=O)[C@]1(C#N)C1CC1 [Example 349, (3R,4S)-3-cyclopropyl-1-(5-(1-(difluoromethyl)-1H-pyrazol-4-yl)benzo[d]thiazol-7-yl)-4-methyl-2-oxopyrrolidine-3-carbonitrile]	< 100 nM	100 to 1000 nM	< 100 nM	> 100 nM	1000 to 5000 nM	100 to 1000 nM	< 5 nM
C[C@@H]1CN(c2nc(-c3cnn(C(F)F)c3)cc3ncsc23)C(=O)[C@]1(C#N)C1CC1 [Example 353, (3R,4S)-3-cyclopropyl-1-(6-(1-(difluoromethyl)-1H-pyrazol-4-yl)thiazolo[5,4-c]pyridin-4-yl)-4-methyl-2-oxopyrrolidine-3-carbonitrile]	< 100 nM	< 100 nM	< 100 nM	20 to 50 nM	100 to 1000 nM	< 100 nM	< 5 nM
C[C@@H]1CN(c2nc(-c3cnn(CC(F)F)c3)cc3ncsc23)C(=O)[C@]1(C#N)C1CC1 [Example 354, (3R,4S)-3-cyclopropyl-1-(6-(1-(2,2-difluoroethyl)-1H-pyrazol-4-yl)thiazolo[5,4-c]pyridin-4-yl)-4-methyl-2-oxopyrrolidine-3-carbonitrile]	< 100 nM	< 100 nM	< 100 nM	20 to 50 nM	< 100 nM	< 100 nM	< 5 nM
CO[C@H]1C[C@H](n2cc(-c3cc4ncsc4c(N4C[C@@H](C)[C@@](C#N)(C5CC5)C4=O)n3)cn2)C1 [Example 355, (3R,4S)-3-cyclopropyl-1-(6-(1-((1r,3R)-3-methoxycyclobutyl)-1H-pyrazol-4-yl)thiazolo[5,4-c]pyridin-4-yl)-4-methyl-2-oxopyrrolidine-3-carbonitrile]	< 100 nM	< 100 nM	< 100 nM	20 to 50 nM	< 100 nM	< 100 nM	< 5 nM

Now from value to compound:

IC50 [1]	IC50 [2]	IC50 [3]	IC50 [4]	IC50 [5]	IC50 [6]	IC50 [7]	SMILES
100 to 1000 nM	100 to 1000 nM	100 to 1000 nM	> 100 nM	5000 to 10000 nM	1000 to 5000 nM	< 5 nM	C[C@@H]1CN(c2ccnc3cc(-c4cnn(C5CC5)c4)oc23)C(=O)[C@]1(C#N)C1CC1 [Example 347, (3R,4S)-3-cyclopropyl-1-(2-(1-cyclopropyl-1H-pyrazol-4-yl)furo[3,2-b]pyridin-7-yl)-4-methyl-2-oxopyrrolidine-3-carbonitrile]
< 100 nM	< 100 nM	< 100 nM	50 to 100 nM	100 to 1000 nM	100 to 1000 nM	< 5 nM	C[C@@H]1CN(c2cc(-c3cnn(C4COC4)c3)cc3ncsc23)C(=O)[C@]1(C#N)C1CC1 [Example 348, (3R,4S)-3-cyclopropyl-4-methyl-1-(5-(1-(oxetan-3-yl)-1H-pyrazol-4-yl)benzo[d]thiazol-7-yl)-2-oxopyrrolidine-3-carbonitrile]
< 100 nM	100 to 1000 nM	< 100 nM	50 to 100 nM	1000 to 5000 nM	100 to 1000 nM	< 5 nM	C[C@@H]1CN(c2cc(-c3cnn(C)c3)cc3ncsc23)C(=O)[C@]1(C#N)C1CC1 [Example 350, (3R,4S)-3-cyclopropyl-4-methyl-1-(5-(1-methyl-1H-pyrazol-4-yl)benzo[d]thiazol-7-yl)-2-oxopyrrolidine-3-carbonitrile]
< 100 nM	< 100 nM	< 100 nM	20 to 50 nM	< 100 nM	100 to 1000 nM	< 5 nM	C[C@@H]1CN(c2nc(-c3cnn(C4CC(C#N)C4)c3)cc3ncsc23)C(=O)[C@]1(C#N)C1CC1 (stereo partly drawn) [Example 356, (3R,4S)-1-(6-(1-(3-cyanocyclobutyl)-1H-pyrazol-4-yl)thiazolo[5,4-c]pyridin-4-yl)-3-cyclopropyl-4-methyl-2-oxopyrrolidine-3-carbonitrile]
